Experimental data published in patent publication US20250170090A1, “METHOD FOR PREVENTING OR TREATING DISEASE OR DISORDER ASSOCIATED WITH ANTINEOPLASTIC AGENT” (ONQUALITY PHARMACEUTICALS CHINA LTD., priority 2022, published 2025).
Read-outs that look alike come from different tables or passages of the source.

Key:
[1] = system: chemotherapy-induced hand-foot syndrome; experiment: Prevention of chemotherapy-induced hand-foot syndrome in rat models (Table 5); format: in vivo, SD rats
Experimental: Rat animal model was constructed. After several days, the rats develop hand-foot syndrome in their paws. After one week of acclimatization (about 200 g), the SD rats are divided into groups of 10 rats each, followed by gavage administration experiment. The chemotherapy drugs were dissolved, and each rat was given a gavage dose of 1 mL/100 g. After gavage, the rats were fixed with a fixed cylinder. NO-NSAID ointment was applied to the paws of the rats in the medication group, and blank ointment was applied to the paws of the rats in the blank group (as blank control). […] Table 5 lists the animal experimental combinations of chemotherapy drugs and NO-NSAID ointment, as well as the corresponding experimental results (where the value in the control rate column=the incidence rate of hand-foot syndrome in the blank group−the incidence rate of hand-foot syndrome in the treatment group).

HUVEC cells = experiment: CCK-8 cell viability: alleviation of proliferative toxicity of anti-tumor agents on HUVEC cells (Tables 7-1, 7-2); format: cell-based; conditions: for activation at 100 µM: Homo sapiens, 24 h, percentage increase in viable cells vs anti-tumor agent alone, read-out: Response rate % (average)
Experimental: The cultured HUVEC cells were digested the suspended, counted, and seed into a 96-well plate with 5,000-10,000 cells per well. The wells are divided into the following groups: blank control group, anti-tumor agent group, anti-tumor agent+NO-NSAID group, anti-tumor agent solvent group, NO-NSAID control group. Wherein each well of each group contained a basic medium, and the final liquid volume contained in each well was about 100 μL. The grouping situation was as follows: • 1) Blank control group: no solution was added except normally replacing the medium; • 2) Anti-tumor agent group: added the anti-tumor agent solution (the final concentration was shown in Table 7-1 and Table 7-2, the solvent of the anti-tumor agent solution was DMSO); • 3) Anti-tumor agent+NO-NSAID group: added the anti-tumor agent solution and the NO-NSAID solution (the final concentrations of anti-tumor agent and NO-NSAID were shown in Table 7-1 and Table 7-2, and according to the solubility of NO-NSAID, the solvent of NO-NSAID solution was selected as ethanol or sterile water, and minor volume differences in each group were adjusted by added the corresponding solvent); • 4) Anti-tumor agent solvent group: an equal volume of DMSO as contained in the corresponding anti-tumor agent solution in Group 2) was added; • 5) NO-NSAID control group: the same volume and type of solvent (for example, ethanol or sterile water) corresponding to the NO-NSAID contained in group 3) was added.
The anti-tumor agent solvent group was not involved in data processing and was only used as a reference for evaluating experimental system error. The NO-NSAID solvent control group was used for data correction to eliminate the influence of the solvent on the results.
After culturing for 24-48 hours, the Cell Counting Kit-8 (CCK-8) detection kit (C0037, Shanghai Beyotime Biotechnology Co., Ltd., Beyotime Biotechnology) was used to determine the cell viability. This allows for the calculation of the proliferative toxicity of anti-tumor agent on cell and the mitigating effect of NO-NSAID on proliferative toxicity. The results were statistically analyzed and plotted using GraphPad Prism 6.0 software and t test.

[2] = Afatinib (10 μM), NO-NSAID 100 μM
[3] = Cabozantinib (5 μM), NO-NSAID 100 μM
[4] = Dabrafenib (10 μM), NO-NSAID 100 μM
[5] = Everolimus (5 μM), NO-NSAID 100 μM
[6] = Infigratinib (15 μM), NO-NSAID 100 μM
[7] = Lapatinib (5 μM), NO-NSAID 100 μM
[8] = Lenvatinib (10 μM), NO-NSAID 100 μM
[9] = Olmutinib (10 μM), NO-NSAID 100 μM
[10] = Regorafenib (5 μM), NO-NSAID 100 μM
[11] = Selumetinib (5 μM), NO-NSAID 100 μM
[12] = Sorafenib (5 μM), NO-NSAID 100 μM
[13] = Sunitinib (5 μM), NO-NSAID 100 μM

With `COc1ccc2cc(C(C)C(=O)OCCCCO[N+](=O)[O-])ccc2c1` (centres unmarked) [Compound A5] the Control rate ([1]; Acelarin 130 mg/kg twice a week, ointment 1% wt, Days 30) was 28.57%, the Control rate ([1]; Acelarin 130 mg/kg twice a week, ointment 2.50% wt, Days 30) was 57.14% and the Control rate ([1]; Capecitabine 4000 mg/kg once a day, ointment 1% wt, Days 40) was 12.50%. The Control rate ([1]; Capecitabine 4000 mg/kg once a day, ointment 2.50% wt, Days 40) was 22.22%, the Control rate ([1]; Capecitabine 4000 mg/kg once a day, ointment 5% wt, Days 40) was 50.00% and the Control rate ([1]; Cytarabine 120 mg/kg twice a day, ointment 1% wt, Days 30) was 14.29%. The Control rate ([1]; Cytarabine 120 mg/kg twice a day, ointment 2.50% wt, Days 30) was 28.57%, the Control rate ([1]; Cytarabine 120 mg/kg twice a day, ointment 5% wt, Days 30) was 57.14% and the Control rate ([1]; Doxorubicin 7 mg/kg once every three days, ointment 1% wt, Days 30) was 37.50%. The Control rate ([1]; Doxorubicin 7 mg/kg once every three days, ointment 2.50% wt, Days 30) was 50.00%, the “NO-NSAID response rate % (average)” value (HUVEC cells; Afatinib (10 μM), NO-NSAID 0.1 μM) was 24% and the “NO-NSAID response rate % (average)” value (HUVEC cells; Afatinib (10 μM), NO-NSAID 1 μM) was 28%. The “NO-NSAID response rate % (average)” value (HUVEC cells; [2]) was 69%, the “NO-NSAID response rate % (average)” value (HUVEC cells; Afatinib (10 μM), NO-NSAID 500 μM) was 22% and the “NO-NSAID response rate % (average)” value (HUVEC cells; Cabozantinib (5 μM), NO-NSAID 0.1 μM) was 1%. For the same compound, the “NO-NSAID response rate % (average)” value (HUVEC cells; Cabozantinib (5 μM), NO-NSAID 1 μM) was 15%, the “NO-NSAID response rate % (average)” value (HUVEC cells; [3]) was 60% and the “NO-NSAID response rate % (average)” value (HUVEC cells; Cabozantinib (5 μM), NO-NSAID 500 μM) was 24%. For the same compound, the “NO-NSAID response rate % (average)” value (HUVEC cells; Dabrafenib (10 μM), NO-NSAID 0.1 μM) was 27%, the “NO-NSAID response rate % (average)” value (HUVEC cells; Dabrafenib (10 μM), NO-NSAID 1 μM) was 28% and the “NO-NSAID response rate % (average)” value (HUVEC cells; [4]) was 65%. The “NO-NSAID response rate % (average)” value (HUVEC cells; Dabrafenib (10 μM), NO-NSAID 500 μM) was 31%, the “NO-NSAID response rate % (average)” value (HUVEC cells; Everolimus (5 μM), NO-NSAID 0.1 μM) was 0% and the “NO-NSAID response rate % (average)” value (HUVEC cells; Everolimus (5 μM), NO-NSAID 1 μM) was −7%. The “NO-NSAID response rate % (average)” value (HUVEC cells; [5]) was 28%, the “NO-NSAID response rate % (average)” value (HUVEC cells; Everolimus (5 μM), NO-NSAID 500 μM) was −2% and the activation at 100 µM (HUVEC cells; [2]) was 69%. It also gave an activation at 100 µM (HUVEC cells; Anlotinib (5 μM), NO-NSAID 100 μM) of 57%, an activation at 100 µM (HUVEC cells; Apatinib (10 μM), NO-NSAID 100 μM) of 59% and an activation at 100 µM (HUVEC cells; Axitinib (10 μM), NO-NSAID 100 μM) of -2%. It also gave an activation at 100 µM (HUVEC cells; [3]) of 60%, an activation at 100 µM (HUVEC cells; [4]) of 65% and an activation at 100 µM (HUVEC cells; Dacomitinib (5 μM), NO-NSAID 100 μM) of 75%. It also gave an activation at 100 µM (HUVEC cells; Encorafenib (5 μM), NO-NSAID 100 μM) of 28%, an activation at 100 µM (HUVEC cells; Erdafitinib (10 μM), NO-NSAID 100 μM) of 43% and an activation at 100 µM (HUVEC cells; [5]) of 28%. It also gave an activation at 100 µM (HUVEC cells; Famitinib (5 μM), NO-NSAID 100 μM) of 35%, an activation at 100 µM (HUVEC cells; Fruquintinib (10 μM), NO-NSAID 100 μM) of 37% and an activation at 100 µM (HUVEC cells; Gefitinib (10 μM), NO-NSAID 100 μM) of 21%. For the same compound, the activation at 100 µM (HUVEC cells; [6]) was 48%, the activation at 100 µM (HUVEC cells; [7]) was 62% and the activation at 100 µM (HUVEC cells; [8]) was 32%. For the same compound, the activation at 100 µM (HUVEC cells; [9]) was 48%, the activation at 100 µM (HUVEC cells; [10]) was 83% and the activation at 100 µM (HUVEC cells; [11]) was 61%. The activation at 100 µM (HUVEC cells; [12]) was 1%, the activation at 100 µM (HUVEC cells; [13]) was 44% and the activation at 100 µM (HUVEC cells; Vemurafenib (5 μM), NO-NSAID 100 μM) was 24%. For the same compound, the “NO-NSAID response rate % (average)” value (HUVEC cells; Infigratinib (15 μM), NO-NSAID 0.1 μM) was 28%, the “NO-NSAID response rate % (average)” value (HUVEC cells; Infigratinib (15 μM), NO-NSAID 1 μM) was 30% and the “NO-NSAID response rate % (average)” value (HUVEC cells; [6]) was 48%. For the same compound, the “NO-NSAID response rate % (average)” value (HUVEC cells; Infigratinib (15 μM), NO-NSAID 500 μM) was 34%, the “NO-NSAID response rate % (average)” value (HUVEC cells; Lapatinib (5 μM), NO-NSAID 0.1 μM) was 26% and the “NO-NSAID response rate % (average)” value (HUVEC cells; Lapatinib (5 μM), NO-NSAID 1 μM) was 35%. The “NO-NSAID response rate % (average)” value (HUVEC cells; [7]) was 62%, the “NO-NSAID response rate % (average)” value (HUVEC cells; Lapatinib (5 μM), NO-NSAID 500 μM) was 36% and the “NO-NSAID response rate % (average)” value (HUVEC cells; Lenvatinib (10 μM), NO-NSAID 0.1 μM) was 11%. For the same compound, the “NO-NSAID response rate % (average)” value (HUVEC cells; Lenvatinib (10 μM), NO-NSAID 1 μM) was 44%, the “NO-NSAID response rate % (average)” value (HUVEC cells; [8]) was 32% and the “NO-NSAID response rate % (average)” value (HUVEC cells; Lenvatinib (10 μM), NO-NSAID 500 μM) was 16%. For the same compound, the “NO-NSAID response rate % (average)” value (HUVEC cells; Olmutinib (10 μM), NO-NSAID 0.1 μM) was 19%, the “NO-NSAID response rate % (average)” value (HUVEC cells; Olmutinib (10 μM), NO-NSAID 1 μM) was 34% and the “NO-NSAID response rate % (average)” value (HUVEC cells; [9]) was 48%. The “NO-NSAID response rate % (average)” value (HUVEC cells; Olmutinib (10 μM), NO-NSAID 500 μM) was 39%, the “NO-NSAID response rate % (average)” value (HUVEC cells; Regorafenib (5 μM), NO-NSAID 0.1 μM) was 29% and the “NO-NSAID response rate % (average)” value (HUVEC cells; Regorafenib (5 μM), NO-NSAID 1 μM) was 46%. The “NO-NSAID response rate % (average)” value (HUVEC cells; [10]) was 83%, the “NO-NSAID response rate % (average)” value (HUVEC cells; Regorafenib (5 μM), NO-NSAID 500 μM) was 22% and the “NO-NSAID response rate % (average)” value (HUVEC cells; Selumetinib (5 μM), NO-NSAID 0.1 μM) was 38%. For the same compound, the “NO-NSAID response rate % (average)” value (HUVEC cells; Selumetinib (5 μM), NO-NSAID 1 μM) was 42%, the “NO-NSAID response rate % (average)” value (HUVEC cells; [11]) was 61% and the “NO-NSAID response rate % (average)” value (HUVEC cells; Selumetinib (5 μM), NO-NSAID 500 μM) was 26%. For the same compound, the “NO-NSAID response rate % (average)” value (HUVEC cells; Sorafenib (5 μM), NO-NSAID 0.1 μM) was 20%, the “NO-NSAID response rate % (average)” value (HUVEC cells; Sorafenib (5 μM), NO-NSAID 1 μM) was 20% and the “NO-NSAID response rate % (average)” value (HUVEC cells; [12]) was 1%. The “NO-NSAID response rate % (average)” value (HUVEC cells; Sorafenib (5 μM), NO-NSAID 500 μM) was 3%, the “NO-NSAID response rate % (average)” value (HUVEC cells; Sunitinib (5 μM), NO-NSAID 0.1 μM) was 20% and the “NO-NSAID response rate % (average)” value (HUVEC cells; Sunitinib (5 μM), NO-NSAID 1 μM) was 40%. The “NO-NSAID response rate % (average)” value (HUVEC cells; [13]) was 44% and the “NO-NSAID response rate % (average)” value (HUVEC cells; Sunitinib (5 μM), NO-NSAID 500 μM) was 31%.
